{
  "source": "paper PMC10363981",
  "about": "“Optimizing the enzymatic release of MMAE from isoDGR-based small molecule drug conjugate by incorporation of a GPLG-PABC enzymatically cleavable linker” (Frontiers in Pharmacology, 2023)",
  "key": {"[1]": {"tested_on": "SK-MEL-28 human melanoma cells", "assay": "In vitro antiproliferative activity, MTT, 72 h continuous treatment (no-washout)", "format": "cell-based", "description": "(§1) U87MG human malignant glioma, SK-MEL-28 human melanoma, SK-OV-3 human ovarian cancer, and A549 human lung cancer cell lines were purchased from ATCC. The cells were cultured in Dulbecco’s Modified Eagle’s Medium (DMEM; Biosera, Nuaille, France), supplemented with 10% heat-inactivated Fetal Bovine Serum (FBS; Biosera), and with 1% Penicillin/Streptomycin (Biosera). Cells were cultured in sterile T75 flasks with ventilation cap (Sarstedt, Nümbrecht, Germany) at 37 °C in a humidified atmosphere with 5% CO2 in ESCO CelCulture Incubator (ESCO, Friedberg, Germany). Manipulations with the cells were performed in biosafety cabinet (laminar) ESCO Sentinel Gold class II model AC2-4E8 (ESCO).\n(§2) After standard trypsinization and harvesting cells by trypsin (Biosera), ethylenediaminetetraacetic acid (EDTA; Biosera) and PBS solution, 6×10^3 cells per well were seeded in serum containing (10%) growth medium to 96-well plates with flat bottom (Eppendorf, Hamburg, Germany), in a 100 μL volume per well, and incubated at 37°C.\n(§3) […] The control wells were treated only with serum free medium (5% serum final).\n(§4) For the evaluation of the in vitro antiproliferative activity of compounds, the cell viability was determined by MTT assay (3-(4,5-dimethylthiazol-2-yl)-2,5-diphenyl-tetrazolium bromide) obtained from Duchefa Biochemie (Haarlem, Netherlands).\n(§5) 22 µL of MTT solution (5 mg/mL in PBS, 0.5 mg/mL final) was added to each well and after 2 h incubation at 37°C, the supernatant was removed. […] Average background absorbance (DMSO-Ethanol) was subtracted from absorbance values of control and treated wells, and cell viability was determined relative to untreated (control) wells where cell viability was arbitrarily set to 100%. […] The experiments were done in triplicate and each experiment was repeated three times."}, "[2]": {"tested_on": "U87MG human malignant glioma cells", "assay": "In vitro antiproliferative activity, MTT, 72 h continuous treatment (no-washout)", "format": "cell-based", "description": "as §1, §2, §3, §4, §5"}, "[3]": {"tested_on": "A549 human lung cancer cells", "assay": "In vitro antiproliferative activity, MTT, 72 h continuous treatment (no-washout)", "format": "cell-based", "description": "as §1, §2\n(§6) In the wash out experiment, cells were incubated with the compounds (5% serum final) for 30 min, then they were washed out, and additionally incubated in growth medium (5% serum final) up to 72 h. The control wells were treated only with serum free medium (5% serum final).\nas §4, §5"}, "[4]": {"tested_on": "SK-OV-3 human ovarian cancer cells", "assay": "In vitro antiproliferative activity, MTT, 72 h continuous treatment (no-washout)", "format": "cell-based", "description": "as §1, §2, §6, §4, §5"}, "[5]": {"tested_on": "A549 human lung cancer cells", "assay": "In vitro antiproliferative activity, \"kiss-and-run\" washout experiment (30 min + washout + up to 72 h)", "format": "cell-based", "description": "as §1, §2, §6, §4, §5\n(§7) Recently, a new protocol for evaluating the antiproliferative activity and the targeting ability of integrin-ligand based conjugates was developed by the group of Prof. […] In this procedure, which we named “kiss-and-run” experiment, after very short initial contact times (15–30 min) of the toxin with the cells in vitro, the solution is drained, and cells are resuspended in the culture medium for a 72 h incubation. This protocol is aimed at simulating the rapid clearance of the drugs that occurs in vivo in the extracellular tumor environment, thus highlighting the ability of the conjugate to bind the integrin receptor on the cell surface."}, "[6]": {"tested_on": "SK-MEL-28 human melanoma cells", "assay": "In vitro antiproliferative activity, \"kiss-and-run\" washout experiment (30 min + washout + up to 72 h)", "format": "cell-based", "description": "as §1, §2, §6, §4, §5, §7"}, "[7]": {"tested_on": "SK-OV-3 human ovarian cancer cells", "assay": "In vitro antiproliferative activity, \"kiss-and-run\" washout experiment (30 min + washout + up to 72 h)", "format": "cell-based", "description": "as §1, §2, §6, §4, §5, §7"}, "[8]": {"tested_on": "U87MG human malignant glioma cells", "assay": "In vitro antiproliferative activity, \"kiss-and-run\" washout experiment (30 min + washout + up to 72 h)", "format": "cell-based", "description": "as §1, §2, §6, §4, §5, §7"}, "[9]": {"assay": "Enzymatic cleavage assay with lysosomal homogenate", "format": "in vitro ADME", "details": "rat liver lysosomal homogenate, conjugate:lysosomal protein 1:10 (w/w), 0.2 M NaOAc pH 5.05, 37 °C, UPLC-HRMS", "description": "The enzymatically cleavage test was performed by incubating the conjugate 2 with rat liver lysosomal homogenate and analyzed by LC–MS. In particular, the conjugate 2 (2.35 μg/μL in DMSO, 5 μL) was diluted with 0.2 M NaOAc solution (pH 5.05, 495 μL) to 0.024 μg/μL. The lysosomal homogenate was prepared from rat liver ([Gomena et al., 2023]), and contained proteins in 71.76 μg/μL concentration. 8.6 μL of this lysosomal homogenate was diluted with 66.4 μL 0.2 M NaOAc solution (pH 5.05), to have a protein concentration of 8.27 μg/μL. To start the assay, 15 μL lysosome homogenate (8.27 μg/μL) was added to 500 μL conjugate solution (0.025 μg/μL), to have a conjugate: lysosomal protein = 1:10 (w/w) ratio. Furthermore, a control reaction mixture was prepared, containing the conjugate (2.35 μg/μL in DMSO, 5 μL) and 510 μL of 0.2 M NaOAc solution (pH 5.05). The samples were stirred at 300 rpm, 37°C and 50 µL aliquots were taken out at 0 min, 15 min, 30 min, 1 h, 2 h, 6 h, 24 h, and 72 h. The enzymatic activity was quenched by adding 5 μL formic acid (FA) to the samples. After this procedure, samples were frozen immediately at −25°C. Control samples were collected at 0 min, 1 h, 6 h, 24 h and 72 h. The composition of the samples was determined by HPLC-MS. […] LC-MS data were analyzed by XcaliburTM software (Thermo Fisher Scientific)."}, "[10]": {"details": "MTT, 72 h continuous treatment, no washout, 5% serum final, triplicate, repeated three times"}, "[11]": {"details": "relative potency = ratio of IC50 of 2 vs MMAE, 72 h no washout"}, "[12]": {"details": "ratio of IC50 of 2 vs MMAE, 30 min + washout + up to 72 h"}, "[13]": {"details": "MTT, 30 min treatment, washout, further incubation up to 72 h, 5% serum final"}},
  "data": [
    {"smiles": "CC[C@H](C)[C@@H]([C@@H](CC(=O)N1CCC[C@H]1[C@H](OC)[C@@H](C)C(=O)N[C@H](C)[C@@H](O)c1ccccc1)OC)N(C)C(=O)[C@@H](NC(=O)[C@H](C(C)C)N(C)C(=O)OCc1ccc(NC(=O)CNC(=O)[C@H](CC(C)C)NC(=O)[C@@H]2CCCN2C(=O)CNC(=O)CCc2cn(CCOCCOCCOCCOCC(=O)NCc3ccc(CN4C(=O)[C@H]5CC(=O)N[C@H](C(=O)O)CC(=O)NCC(=O)N[C@@H](CCCNC(=N)N)C(=O)NC[C@H]4C(=O)N5)cc3)nn2)cc1)C(C)C", "note": "[compound 2, cyclo[DKP-isoDGR]-PEG4-GPLG-PABC-MMAE]", "values": [
      {"measurement": "IC50", "setting": "[1]; [10]", "result": "70.4 ± 7.1", "unit": "nM"},
      {"measurement": "RP [SMDC (2)/MMAE] SK-MEL-28", "setting": "[1]; [11]", "result": 29.49},
      {"measurement": "IC50", "setting": "[2]; [10]", "result": "7.5 ± 0.9", "unit": "nM"},
      {"measurement": "RP [SMDC (2)/MMAE] U87MG", "setting": "[2]; [11]", "result": 33.30},
      {"measurement": "IC50", "setting": "[3]; MTT, 72 h continuous treatment, no washout, 5% serum final, αVβ3 low expressing line, triplicate, repeated three times", "result": "20.8 ± 1.8", "unit": "nM"},
      {"measurement": "RP [SMDC (2)/MMAE] A549", "setting": "[3]; [11]", "result": 302.32},
      {"measurement": "IC50", "setting": "[4]; [10]", "result": "3.7 ± 0.3", "unit": "nM"},
      {"measurement": "RP [SMDC (2)/MMAE] SK-OV-3", "setting": "[4]; [11]", "result": 120.52},
      {"measurement": "IC50", "setting": "[5]; MTT, 30 min treatment, washout, further incubation up to 72 h, 5% serum final, αVβ3 low expressing line", "result": "1240 ± 85.2", "unit": "nM"},
      {"measurement": "RP [SMDC (2)/MMAE] A549", "setting": "[5]; [12]", "result": 4.67},
      {"measurement": "IC50", "setting": "[6]; [13]", "result": "938 ± 112", "unit": "nM"},
      {"measurement": "RP [SMDC (2)/MMAE] SK-MEL-28", "setting": "[6]; [12]", "result": 0.67},
      {"measurement": "IC50", "setting": "[7]; [13]", "result": "198 ± 13.7", "unit": "nM"},
      {"measurement": "RP [SMDC (2)/MMAE] SK-OV-3", "setting": "[7]; [12]", "result": 0.97},
      {"measurement": "IC50", "setting": "[8]; [13]", "result": "683 ± 37.1", "unit": "nM"},
      {"measurement": "RP [SMDC (2)/MMAE] U87MG", "setting": "[8]; [12]", "result": 0.32},
      {"measurement": "cleavage of the conjugate in the presence of lysosomal enzymes", "setting": "[9]", "result": "rapidly cleaved"},
      {"measurement": "incubation time after which released free MMAE is detectable", "setting": "[9]", "result": "≤ 15", "unit": "min"}
    ]}
  ]
}
